Among the data in patent US20240208961A1, “EIF4E INHIBITORS AND USES THEREOF” (PIC Therapeutics, Inc., priority 2022, published 2024) are IC50 values, retold here.

For assay [1], the system named is ZR-75-1. Briefly: ZR-75-1 compound screening cell viability, Alamar Blue (Example 6). The assay is classed as cell-based. As to conditions: Homo sapiens, 96 h, ZR-75-1 cells, Media 1% FBS, read-out: ZR-75-1 Cell Viability, 4 Days: IC50.
Assay [2] concerns ZR-75-1. Briefly: Cell viability assay, adherent cell line, 5 day Alamar Blue (Example 8): ZR-75-1. Type of assay: cell-based. As to conditions: Homo sapiens, 120 h, ZR-75-1, Breast Cancer Cell Viability. The protocol:
(§1) Cell viability assays were performed on certain compounds of the disclosure, according to the following procedure.
(§2) Cell line specific media conditions used:
(§3) The procedure for adherent cell line compound screening was as follows:
(§4) • Cells were seeded in 96-well cell culture treated tissue culture plates: ZR-75-1, NIHOVCAR3, T47D, and LOVO cells 4000 cells/well; and HPAFII 3000 cell/well
(§5) Day 3: Compound Dilution and Dosing
(§6) • 5-fold serial dilution (8 point) of each compound in DMSO 0-25 mM in compound storage plates was prepared (stored at −80° C. if not to be used immediately). • Cells were rinsed with 1% FBS Media (appropriate to cell line as described above) and replaced with 87.5 μL media prior to dosing. HPAFII was screened in normal 10% FBS Media. • DMSO compound dilution series was diluted in 1% FBS media (appropriate to cell line as described above)—2 μL in 248 μL to give an 8× final concentration. • Cells were dosed 12.5 μL/well in triplicate to give final dose curved on cells 0-25 μM. • Media blank 100 μL/well×8 was set up. • All plates were incubated at 37° C.
(§7) Day 8: 5 Day Viability Assay
(§8) • Alamar Blue viability reagent was added (10 μL per well) and incubated for 3 hours at 37° C. prior to fluorescence detection (Ex560 nm/Em590 nm) on a Varioskan Lux multimode plate reader.
(§9) Results from cell viability assays are summarized in Table 23, wherein A represents IC50≤1 μM; B represents 1 μM<IC50≤8 μM; and C represents IC50>8 μM. Blank cells indicate that the compound was not tested in a particular assay.

Assay [3] concerns LoVo. Briefly: Cell viability assay, adherent cell line, 5 day Alamar Blue (Example 8): LoVo. As to conditions: Homo sapiens, 120 h, Colorectal Cancer Cell Viability. Type of assay: cell-based. The protocol:
as §1, §2, §3, §4, §5, §6, §7, §8, §9

Assay [4] concerns T47D. Briefly: Cell viability assay, adherent cell line, 5 day Alamar Blue (Example 8): T47D. Type of assay: cell-based. As to conditions: Homo sapiens, 120 h, Breast Cancer Cell Viability. The protocol:
as §1, §2, §3, §4, §5, §6, §7, §8, §9

In assay [5] the test system is MM.1S. In words: Cell viability assay, suspension cell line, 5 day Alamar Blue (Example 8): MM.1S. The assay is classed as cell-based. As to conditions: Homo sapiens, MM1.S, 120 h, Multiple Myeloma (Steroid Sensitive) Cancer Cell. The protocol:
as §1, §2
(§10) The procedure for suspension cell line compound screening was as follows:
(§11) Day 1: Cell Seeding and Compound Dosing
as §6, with “• Cells were seeded 2×10^5 in 96-well cell culture treated tissue culture plates: 87.5 μL/well; MM.1 S, MM,1R, NCIH510A. • 5-fold” for “• 5-fold”, “to dosing. • DMSO” for “to dosing. HPAFII was screened in normal 10% FBS Media. • DMSO”
(§12) Day 6: 5 Day Viability Assay
as §8, §9

For assay [6], the system named is NCIH510A. Briefly: Cell viability assay, suspension cell line, 5 day Alamar Blue (Example 8): NCIH510A. Type of assay: cell-based. As to conditions: Homo sapiens, NCI-H510A, 120 h, Small Cell Lung Cancer Cell Line. Here is the method: as §1, §2, §10, §11
as §6, with “• Cells were seeded 2×10^5 in 96-well cell culture treated tissue culture plates: 87.5 μL/well; MM.1 S, MM,1R, NCIH510A. • 5-fold” for “• 5-fold”, “to dosing. • DMSO” for “to dosing. HPAFII was screened in normal 10% FBS Media. • DMSO”
as §12, §8, §9

Assay [7] addresses T1, Human eIF4E (aa 28-217) (Homo sapiens, UniProt P06730).
T1 construct: Human eIF4E (aa 28-217) with a C-terminal His-tag; made in house
In words: 4G-eIF4E protein-based assay (TR-FRET, biotin labeled 4G2 peptide). Type of assay: binding. The protocol: Human eIF4E ([…]) with a C-terminal His-tag was expressed in E. coli in inclusion bodies. The protein was solubilized with 8 M urea and purified under denaturing conditions using nickel-charged HisTrap HP columns (GE Healthcare). The purified protein was then refolded by diluting in 20 mM Hepes pH 7.0, 0.5 M NaCl, 1 mM DTT, […], 0.5 M arginine plus 6 M urea, and then dialyzing overnight into the same buffer without the urea. The protein was further dialyzed into 20 mM Hepes, pH 6.5, 50 mM NaCl, 1 mM EDTA, 1 mM DTT, and concentrated using Hitrap SP sepharose FF columns (GE Healthcare). The concentrated protein was dialyzed into 20 mM Hepes, pH 7.0, 0.5M NaCl, 5 mM DTT and […], and stored at -80° C. until use. Test compounds (3.43 mM stock in DMSO) were diluted 2-fold in series in DMSO (10 concentration points). Compound solutions (1.2 μL/well) were added into black 384-well polypropylene microplates (Matrix, Thermal Scientific). […] The samples were incubated at room temperature (20-23° C.) for 4 hours. Biotin labeled 4G2 peptide ([…])-NH2, 1.75 μM stock in DMSO) was diluted to 0.13 μM in Assay Buffer (without DTT) and 5 μL/well was added. The samples were incubated at room temperature for 20 min. Five microliters per well of 15 nM Eu-streptavidin (Eu-SA, Perkin Elmer) and 96 nM Allophycocyanin (APC)-anti His antibody (Columbia Biosciences) in Assay Buffer (without DTT) were then added and the samples were incubated at room temperature for 20 min. Assay signals were monitored by reading excitation at 340 nm and emission fluorescence at 615 nm and 665 nm on an Envision reader (Perkin Elmer). Normalized TR-FRET (time-resolved fluorescence resonance energy transfer) assay signal (Rn) was calculated by the formula: […] C=(Ac-Ba)/(Dc-Bd) • Where Ac is the fluorescence intensity of 1.5 nM Eu-SA in the assay buffer at 665 nm. IC50 values were calculated using xLFit program (IDBS).

The subject of assay [8] is MM.1R. Briefly: Cell viability assay, suspension cell line, 5 day Alamar Blue (Example 8): MM.1R. The assay is classed as cell-based. As to conditions: 120 h, Multiple Myeloma (Steroid Resistant) Cancer Cell. Here is the method:
as §1, §2, §10, §11
as §6, with “• Cells were seeded 2×10^5 in 96-well cell culture treated tissue culture plates: 87.5 μL/well; MM.1 S, MM,1R, NCIH510A. • 5-fold” for “• 5-fold”, “to dosing. • DMSO” for “to dosing. HPAFII was screened in normal 10% FBS Media. • DMSO”
as §12, §8, §9

Assay [9] deals with HPAFII. In words: Cell viability assay, adherent cell line, 5 day Alamar Blue (Example 8): HPAFII. Type of assay: cell-based. As to conditions: Homo sapiens, HPAF-II, 120 h, Pancreatic Cancer Cell. The protocol:
as §1, §2, §3, §4, §5, §6, §7, §8, §9

Assay [10] has as its system NIHOVCAR3. In words: Cell viability assay, adherent cell line, 5 day Alamar Blue (Example 8): NIHOVCAR3. The assay is classed as cell-based. As to conditions: Homo sapiens, OVCAR-3, 120 h, OVCAR3, Ovarian Cancer Cell. Here is the method:
as §1, §2, §3, §4, §5, §6, §7, §8, §9

T1 sequence (P06730 28-217): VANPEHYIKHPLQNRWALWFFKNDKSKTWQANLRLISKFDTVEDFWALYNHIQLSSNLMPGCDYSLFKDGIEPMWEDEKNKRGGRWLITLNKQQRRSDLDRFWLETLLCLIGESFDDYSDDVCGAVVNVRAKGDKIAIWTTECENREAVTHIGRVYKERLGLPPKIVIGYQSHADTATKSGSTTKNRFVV

Turning to `CC(C)c1cnc(Nc2ncc(-c3cccs3)cc2C(=O)O)s1` [Compound I-16], the IC50 in assay [1] and in [2] was more than 8000 nM each time.
With `Cc1nc(Nc2ncc(-c3cccs3)cc2C(=O)O)sc1CC(C)C` [Compound I-17], the IC50 in assay [1] and in [2] was more than 8000 nM each time.
For `CC(C)Cc1cnc(Nc2ncc(-c3cccs3)cc2C(=O)O)s1` [Compound I-18], the IC50 in assay [1] and in assay [2] was 1000 to 8000 nM throughout.
Turning to `CC(C)Cc1sc(Nc2ncc(-c3cccs3)cc2C(=O)O)nc1C(F)(F)F` [Compound I-22], the IC50 in assay [1] and in [2] was 1000 to 8000 nM each time.
As to `Cc1ccc(-c2cnc(Nc3nc(C(C)(C)C)c(CC(C)C)s3)c(C(=O)O)c2)s1` [Compound I-24], the IC50 in assay [3] was 1000 to 8000 nM; in assay [4], 1000 to 8000 nM; in assay [5] it was more than 8000 nM; in assay [6], 1000 to 8000 nM; in assay [7], not above 500 nM; in assay [8], more than 8000 nM. The IC50 was 1000 to 8000 nM in assay [2], more than 8000 nM in assay [9] and 1000 to 8000 nM in assay [10].
Compound `CC(C)c1sc(Nc2ncc(-c3cccs3)cc2C(=O)O)nc1C(C)(C)C` [Compound I-25] returned an IC50 in assay [2] of 1000 to 8000 nM.
On the same count and under the same terms, to `CC(C)Cc1sc(Nc2ncc(-c3cccs3)cc2C(=O)O)nc1C(C)C` [Compound I-26] belongs not above 1000 nM.
Turning to `CC(C)Cc1sc(Nc2ncc(-c3cccs3)cc2C(=O)O)nc1C1CCC1` [Compound I-28], the IC50 in [3] is not above 1000 nM; in [4], not above 1000 nM; in [5] it was not above 1000 nM; in [6], not above 1000 nM; in assay [7] it was 500 to 1000 nM; in [8], not above 1000 nM. Besides, the IC50 in assay [2], in assay [9] and in assay [10] was not above 1000 nM in each case.
Regarding `Cc1ccc(-c2cnc(Nc3nc(C4CCC(F)(F)CC4)c(CC(C)C)s3)c(C(=O)O)c2)s1` [Compound I-30], the IC50 in assay [3] lay in the range of 1000 to 8000 nM; in [4], 1000 to 8000 nM; in [5], 1000 to 8000 nM; in assay [6] it was 1000 to 8000 nM; in [7] it was 500 to 1000 nM; in assay [8], 1000 to 8000 nM. Besides, the figures for the IC50 in assay [2], in [9] and in assay [10] were 1000 to 8000 nM, more than 8000 nM and 1000 to 8000 nM, respectively.
For `CC(C)c1sc(Nc2ncc(-c3cccs3)cc2C(=O)O)nc1C1CCC(F)(F)CC1` [Compound I-31], the IC50 in [2] was 1000 to 8000 nM.
